# Measurements taken from article PMC9226319, “Peripherally restricted transthyretin-based delivery system for probes and therapeutics avoiding opioid-related side effects” (Nature Communications, 2022).
# “And” between values parts separate entries of the source, which are not always exact repeats. Equal entries are not always repeated. Where two headings read alike, the source gives them in different places.
# Key:
# [1] = biological target: TTR in human serum (Homo sapiens, UniProt P02766); assay: TTR serum fluorescent probe exclusion (FPE) selectivity assay; type: binding; conditions: ligand 10 µM; for %FPE probe fluorescence: human serum, replicates
# [2] = biological target: T1, delta-opioid receptor (human) (Homo sapiens, UniProt P41143); assay: Human delta-opioid receptor (agonist radioligand [3H]-DADLE) binding assay; conditions: for % Inhibition of Control Specific Binding: delta-opioid receptor binding, replicates 1st/2nd
# T1 construct: Eurofins Cerep (France)
# T1 sequence (P41143 whole entry): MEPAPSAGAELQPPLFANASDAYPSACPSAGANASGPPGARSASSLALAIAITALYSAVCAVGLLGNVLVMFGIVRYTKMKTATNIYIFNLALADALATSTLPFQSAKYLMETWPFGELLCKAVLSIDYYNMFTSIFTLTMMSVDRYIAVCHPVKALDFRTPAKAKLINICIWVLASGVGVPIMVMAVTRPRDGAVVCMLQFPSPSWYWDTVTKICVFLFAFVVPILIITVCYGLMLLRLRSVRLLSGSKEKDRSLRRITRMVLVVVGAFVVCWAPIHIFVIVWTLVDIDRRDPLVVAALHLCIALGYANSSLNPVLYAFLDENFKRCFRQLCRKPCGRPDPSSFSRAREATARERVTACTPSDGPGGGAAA
# [3] = Serum stability assay of AG10-L2-Nal, mouse serum; type: in vitro ADME; conditions: 100 µM
# Procedure: (§1) AG10-L2-Nal (100 μM) was incubated in sera, and the concentration remaining in respective media was determined at 0 and 48 h using HPLC. Bar graphs represent the mean of % compound remaining ± s.d. […] The plasma, brain tissue, and CSF were collected at 30 min after dosing. The ratio of the brain (ng/g) versus plasma concentration (ng/mL) is expressed as the percentage brain to plasma ratio. The ratio of the CSF (ng/mL) versus plasma concentration (ng/mL) is expressed as the percentage CSF to plasma ratio. Bar graphs show the respective mean (±s.d.) (n = 3 for each group). […] The concentration of the test compounds in plasma was determined at different time points and expressed as means ± s.d. of three biological replicates. Source data are provided as a Source Data file. […]
# (§2) (Taiwan). The experimental procedure was performed as reported12. […]
# (§3) Serum stability assay of AG10-L2-Nal. […] 100 μL samples were analyzed at 0 h, 24 h, and 48 h time intervals. […] The supernatant was analyzed using Waters™ XBridge C18 column (4.6x250 mm, 5μm) on Waters e2695 separations module HPLC system connected to a Waters 2998 photodiode array detector operating between the UV ranges of 200-400 nm. […]
# [4] = Serum stability assay of AG10-L2-Nal, human serum; type: in vitro ADME; conditions: 100 µM
# Procedure: as §1, §2, §3
# [5] = system: male Sprague-Dawley rats; assay: Gastrointestinal (GI) transit (charcoal meal) assays; type: in vivo, rat; conditions: rat, in vivo
# [6] = biological target: holo-RBP-TTR interaction (Homo sapiens, UniProt P02766); assay: Effect on holo-RBP-TTR interaction in human serum (cross-linking, Western blot)
# [7] = rat; for plasma concentration: individual animals
# [8] = system: male Sprague-Dawley rats; conditions: rat, in vivo
# [9] = in vitro; conditions: human, % Cell viability, replicates
structure (smiles),measurement,setting,value
C=CCN1CC[C@]23c4c5ccc(O)c4O[C@H]2[C@@H](OCc2cn(CCNCCCCCCOc4cc(OCCCc6c(C)n[nH]c6C)cc(C(=O)O)c4)nn2)CC[C@@]3(O)[C@H]1C5 [AG10-L2-Nal],% TTR occupancy in human serum,"[1]; FPE probe 3.6 µM, 3 h reading relative to probe alone, text mean ± s.d., table replicates",62.5 ± 1.1% and 62.04% and 62.07% and 64.05% and 61.92%
same,%FPE probe fluorescence,[1]; time 0.000 h,0.000%
same,%FPE probe fluorescence,[1]; time 0.083 h,0.018% and 0.756% and -2.232% and -2.399%
same,%FPE probe fluorescence,[1]; time 0.250 h,-1.158% and 2.209% and 1.458% and -0.885%
same,%FPE probe fluorescence,[1]; time 0.500 h,4.241% and 3.528% and 5.089% and 2.218%
same,%FPE probe fluorescence,[1]; time 1.000 h,6.503% and 10.611% and 13.590% and 14.148%
same,%FPE probe fluorescence,[1]; time 1.250 h,9.009% and 13.005% and 15.989% and 16.127%
same,%FPE probe fluorescence,[1]; time 1.500 h,13.314% and 18.863% and 18.262% and 17.288%
same,%FPE probe fluorescence,[1]; time 1.750 h,17.598% and 21.285% and 22.377% and 21.648%
same,%FPE probe fluorescence,[1]; time 2.000 h,21.919% and 25.680% and 23.861% and 25.075%
same,%FPE probe fluorescence,[1]; time 2.250 h,26.163% and 28.876% and 26.928% and 27.418%
same,%FPE probe fluorescence,[1]; time 2.500 h,26.877% and 32.466% and 29.919% and 30.633%
same,%FPE probe fluorescence,[1]; time 2.750 h,34.129% and 34.947% and 31.920% and 33.937%
same,%FPE probe fluorescence,[1]; time 3.000 h,37.964% and 37.926% and 35.954% and 38.083%
same,%FPE probe fluorescence,[1]; time 3.500 h,44.335% and 44.718% and 41.995% and 45.800%
same,%FPE probe fluorescence,[1]; time 3.750 h,47.041% and 46.124% and 44.395% and 46.344%
same,%FPE probe fluorescence,[1]; time 4.000 h,49.775% and 49.574% and 47.863% and 50.648%
same,%FPE probe fluorescence,[1]; time 4.250 h,49.252% and 50.428% and 49.751% and 51.967%
same,%FPE probe fluorescence,[1]; time 4.500 h,53.631% and 53.865% and 52.939% and 52.730%
same,%FPE probe fluorescence,[1]; time 4.750 h,56.220% and 54.908% and 55.174% and 55.874%
same,%FPE probe fluorescence,[1]; time 5.000 h,57.139% and 56.055% and 53.820% and 57.315%
same,%FPE probe fluorescence,[1]; time 5.250 h,59.200% and 60.014% and 56.004% and 59.143%
same,%FPE probe fluorescence,[1]; time 5.500 h,60.336% and 59.246% and 59.233% and 60.795%
same,%FPE probe fluorescence,[1]; time 5.750 h,61.971% and 60.994% and 58.022% and 62.173%
same,%FPE probe fluorescence,[1]; time 6.000 h,64.344% and 63.419% and 61.650% and 63.934%
same,Ki,"[2]; [3H]-DADLE displacement, read-out: binding affinity to delta-opioid receptor (Ki)",5.5 nM
same,% Inhibition of Control Specific Binding,[2]; 1.0E-07 M,91.6% and 94.2%
same,% Inhibition of Control Specific Binding,[2]; 1.0E-08 M,53.9% and 52.4%
same,% Inhibition of Control Specific Binding,[2]; 1.0E-09 M,14.6% and 12.2%
same,% Inhibition of Control Specific Binding,[2]; 1.0E-10 M,2.7% and 9.1%
same,% Inhibition of Control Specific Binding,[2]; 5.0E-08 M,83.7% and 87.4%
same,% compound remaining in mouse serum,"[3]; 0 h, replicates",98.29% and 100.51% and 101.20%
same,% compound remaining in mouse serum,"[3]; 37 °C, 48 h, table replicates",100% and 99.98% and 100.20% and 102.73%
same,% compound remaining in human serum,"[4]; 0 h, replicates",101.76% and 98.77% and 99.47%
same,% compound remaining in human serum,"[4]; 37 °C, 48 h, table replicates",100% and 100.03% and 100.96% and 96.87%
same,GI transit 2.5h as % of saline group,[5],45.3% and 46.0% and 49.8% and 55.5% and 53.6% and 48.3%
same,reversal of OIC in the presence of AG10,[5],no improvement in the OIC
same,"GI transit as % of vehicle group, compound alone",[5]; sc,95.27% and 87.87% and 102.14% and 105.69% and 102.69%
same,interference with holo-RBP binding to TTR,"[6]; 20 µM in human serum, 2 h 37 °C",does not interfere with
same,%holo RBP binding to TTR,"[6]; human serum, quantified from gel image, replicates (Supp Fig.14b)",7% and 8.1% and 7.9%
same,fold higher AUCinf than naloxegol,[7]; IV 4.84 µmol/kg,~23 fold
same,fold higher AUCinf than naloxone,[7]; IV 4.84 µmol/kg,~12 fold
same,fold increase in half-life compared to naloxegol,[7]; IV 4.84 µmol/kg,3.5 fold
same,fold increase in half-life compared to naloxone,[7]; IV 4.84 µmol/kg,7 fold
same,plasma concentration,"[7]; IV 4.84 µmol/kg, 0.03 h",57263.9 nM and 57506.1 nM
same,plasma concentration,"[7]; IV 4.84 µmol/kg, 0.5 h",2941.9 nM and 1319.6 nM and 2239.7 nM
same,plasma concentration,"[7]; IV 4.84 µmol/kg, 1 h",296.6 nM and 441.9 nM
same,plasma concentration,"[7]; IV 4.84 µmol/kg, 2 h",155 nM and 181.6 nM
same,plasma concentration,"[7]; IV 4.84 µmol/kg, 4 h",92.9 nM and 28.6 nM and 125.9 nM
same,plasma concentration,"[7]; IV 4.84 µmol/kg, 6 h",75.2 nM and 37 nM and 51.6 nM
same,plasma concentration,"[7]; IV 4.84 µmol/kg, 8 h",23 nM and 56.2 nM and 25.7 nM
same,plasma concentration,"[7]; IV 4.84 µmol/kg, 12 h",14.4 nM and 12 nM
same,plasma concentration,"[7]; IV 4.84 µmol/kg, 24 h",3.4 nM and 7.2 nM and 2.7 nM
same,k,[7]; single IV bolus 4.84 µmol/kg,0.12 ± 0.02 h⁻¹
same,plasma concentration,"[8]; male, Sprague-Dawley",7600 ± 500 nM
same,Hot plate latency,[8],60 s
same,hot plate latency,[8],significant analgesia
same,reversal of morphine-induced analgesia in the presence of AG10,[8],no reversal of analgesia
same,hot plate latency,[8]; iv,60 s
same,"viability at 72 h, 10 µM",[9]; 10 μM,102%
same,"viability at 72 h, 100 µM",[9]; 100 μM,112%
